Data taken from paper PMC11990103, “Anticancer Activity and Safety Profile of Novel 1-(4-Fluorophenoxyacetyl)-4-substituted Thio/Semicarbazide Derivatives” (Molecules, 2025).

Key:
Format in all cases: cell-based, human
[1] = system: G-361 melanoma cells; assay: Apoptosis detection, annexin V and propidium iodide; settings: G-361, 48 h, concentration approximate to IC50
Method: (§1) To further evaluate the anticancer activity of thiosemicarbazide derivative AB2 in G-361 and LNCaP cell lines, cell cycle analysis by image cytometry and detection of apoptosis using annexin V and propidium iodide was performed. Analyses of the action of AB2 on the distribution of cells in different phases of the cell cycle indicated a significant increase in the population of cells in the sub-G1 phase compared to the control cultures, in both tested prostate and melanoma cells. This population increased from 7% and 5% in control cells to 26% and 27% after exposure to AB2 in LNCaP and G-361 cells, respectively (Figure 8A). The increase in the cell population in the sub-G1 phase indicates the presence of apoptosis or necrosis in the investigated cells and not a significant inhibition of cell proliferation, i.e., a cytostatic effect.
(§2) In prostate cancer cells, the percentage of early apoptotic cells substantially elevated after AB2 treatment compared with the control group, indicating the initial activation of the apoptotic pathway. […] The percentage of cells in the early phase of apoptosis is approximately 36% and 28% in LNCaP and G-361 cells, respectively (Figure 8B). At the same time, the population of cells in late apoptosis increased in both cell lines, implying a progression of the apoptotic process after AB2 exposure. […]

[2] = system: LNCaP prostate cancer cells; assay: as above; settings: 48 h, concentration approximate to IC50
Method: as §1, §2

[3] = system: G-361 melanoma cell line; assay: qRT-PCR relative gene expression; settings: G-361, 24 h, concentration corresponding to IC50
Method: (§3) An analysis was conducted to examine the impact of the thiosemicarbazide AB2 on LNCaP prostate cancer cells and G-361 melanoma cells, focusing on the expression of genes associated with oxidative stress, cell cycle regulation, DNA repair, and apoptosis. Superoxide dismutase (SOD2), catalase (CAT), and glutathione peroxidase 1 (GPX1) are critical antioxidant enzymes that protect cells from oxidative stress by neutralizing reactive oxygen species (ROS) and mitigating potential cellular damage. […] This indicates heightened activation of cell cycle arrest mechanisms, given that p21 acts as an important inhibitor of cyclin-dependent kinases essential for cell cycle progression. […] The contrasting alterations in CDKN1A and CYCD indicate a transition toward cell cycle arrest in response to AB2 (Figure 9B). The next assessed panel of genes includes those involved in DNA damage sensing and repair, specifically ATM and ATR. ATM and ATR are fundamental components of the DNA damage response, responsible for the detection and repair of double-strand and single-strand DNA breaks, respectively.
(§4) The last assessed panel of genes includes genes involved in the process of apoptosis. BAX is a protein that enhances apoptosis, a natural to eliminate damaged or cancer cells. On the other hand, BCL-2 prevents apoptosis, helping cancer cells survive and resist therapy. […] The decrease in BCL-2 expression, along with stable BAX levels, led to a higher BAX/BCL-2 ratio in comparison to the control.
(§5) The relative gene expression was quantitatively assessed using real-time PCR. […] Next, for cell lysis the 1 mL of TRIzol™ reagent (Invitrogen, Carlsbad, CA, USA) was added. RNA was isolated according to the Chomczynski and Sacchi method. The RNA was reverse transcribed using NG dART RT-PCR reagents (EURx, Gdańsk, Poland) according to the manufacturer’s instructions. Following the manufacturer’s recommendation, the qPCR reaction was conducted in triplicate in a 7500 fast real-time PCR machine (ThermoFisher, Waltham, MA, USA) using Fast SG/ROX qPCR Master Mix (2×) (EURx, Gdansk, Poland). 18SRNA and BACT were used as reference genes. Gene expression was evaluated using qRT-PCR and ΔΔCt. Statistical analysis was conducted using RQ values (RQ = […]).

[4] = system: LNCaP prostate cancer cell line; assay: qRT-PCR relative gene expression; settings: 24 h, concentration corresponding to IC50
Method: as §3, §4, §5

O=C(COc1ccc(F)cc1)NNC(=S)Nc1ccccc1Cl [AB2]
early apoptotic cells (Q1lr) [1]: ~28%
late apoptotic cells (Q1ur) [2]: 37%
ATM gene expression [3]: downregulated
ATR gene expression [3]: downregulated
BAX gene expression [3]: did not differ from the control cultures
BAX/BCL-2 ratio in comparison to the control [3]: higher
BCL-2 gene expression [3]: significantly downregulated
CAT gene expression, increase [3]: approximately 8 fold
CDKN1A (p21) gene expression [3]: significantly upregulated
CYCD (cyclin D) gene expression [3]: notably downregulated
GPX1 gene expression [3]: moderate but significant rise
SOD2 gene expression, rise compared to control [3]: > 100 fold
TP53 gene expression [3]: significant downregulation
ATM gene expression [4]: downregulated
ATR gene expression [4]: downregulated
BAX gene expression [4]: did not differ from the control cultures
BAX/BCL-2 ratio in comparison to the control [4]: higher
BCL-2 gene expression [4]: significantly downregulated
CAT gene expression, increase [4]: ~6 fold
CDKN1A (p21) gene expression [4]: significantly upregulated
CYCD (cyclin D) gene expression [4]: notably downregulated
GPX1 gene expression [4]: moderate but significant rise
SOD2 gene expression, increase compared to control [4]: > 20 fold
TP53 gene expression [4]: significant downregulation
